Results on 2 molecules are retold here after paper PMC6318021 (Structure (London, England : 1993), 2018).

As usually defined, the Kd is the concentration at which binding is half-saturated. A lower Kd goes with a tighter complex.

This test deals with Nurr1 (nuclear receptor related 1 protein) (Homo sapiens, UniProt P43354). The test is described as follows: tryptophan fluorescence quenching. The format is binding.
Sequence of Nurr1 (nuclear receptor related 1 protein) (P43354 352-598): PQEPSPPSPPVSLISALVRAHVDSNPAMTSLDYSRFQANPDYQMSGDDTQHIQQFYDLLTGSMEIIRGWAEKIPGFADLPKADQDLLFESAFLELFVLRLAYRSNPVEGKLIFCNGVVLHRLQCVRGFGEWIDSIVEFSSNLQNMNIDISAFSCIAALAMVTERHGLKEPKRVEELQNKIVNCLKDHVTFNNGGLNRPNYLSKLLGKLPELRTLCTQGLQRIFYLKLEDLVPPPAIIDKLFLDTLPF

`CCCCC/C=C\C/C=C\CCCCCCCC(=O)O` [LA, linoleic acid] yielded a Kd of 101 ± 13 µM. In the case of `CCCCCCCC/C=C\CCCCCCCC(=O)O` [OA, oleic acid] it was 59 ± 15 µM.
